One data set has as its system Myzus persicae. As to the kind of experiment: Myzus persicae oral test. The following applies: 120 h, after 5 days. It is filed as in vivo. Here is the method: Myzus persicae—Oral Test Solvent: 100 parts by weight acetone
To produce a suitable preparation of active compound, 1 part by weight of active compound is mixed with the stated amount of solvent, and the concentrate is diluted with water to the desired concentration.
50 μl compound solution is filled in microtiter plates and 150 μl IPL41 insect medium (33%+15% sugar) is added to obtain a total volume of 200 μl per well. Afterwards the plates are sealed with parafilm through which a mixed population of the green peach aphid (Myzus persicae) can suck on the compound preparation.
After 5 days mortality in % is determined. 100% means all aphids have been killed and 0% means none of the aphids have been killed.

For the next data set, the system named is Phaedon cochleariae. As to the kind of experiment: Phaedon cochleariae spray test. It is filed as in vivo. The following applies: 168 h, after 7 days. Here is the method:
Phaedon cochleariae—Spray Test Solvent: 78.0 parts by weight of acetone • • 1.5 parts by weight of dimethylformamide Emulsifier: alkylarylpolyglycol ether
(§1) To produce a suitable preparation of active compound, 1 part by weight of active compound is mixed with the stated amount of solvents and is diluted with water, containing an emulsifier concentration of 1000 ppm, to the desired concentration. Further test concentrations are prepared by dilution with emulsifier containing water.
Chinese cabbage (Brassica pekinensis) leaf disks are sprayed with a preparation of the active ingredient of the desired concentration. Once dry, the leaf disks are infested with mustard beetle larvae (Phaedon cochleariae).
After 7 days mortality in % is determined. 100% means all beetle larvae have been killed and 0% means none of the beetle larvae have been killed.

The next data set relates to Diabrotica balteata. As to the kind of experiment: Diabrotica balteata spray test. The following applies: 168 h, 160 gg/well, after 7 days, read-out: efficacy (seedlings grown). It is filed as in vivo. Here is the method:
Diabrotica balteata—Spray Test Solvent: 78.0 parts by weight of acetone • • 1.5 parts by weight of dimethylformamide Emulsifier: alkylarylpolyglycol ether
To produce a suitable preparation of active compound, 1 part by weight of active compound is mixed with the stated amount of solvent, and the concentrate is diluted with water, containing an emulsifier concentration of 1000 ppm, to the desired concentration. Further test concentrations are prepared by dilution with emulsifier containing water.
Soaked wheat seeds (Triticum aestivum) are placed in a multiple well plate filled with agar and some water and are incubated for 1 day to germinate (5 seeds per well). The germinated wheat seeds are sprayed with a test solution containing the desired concentration of the active ingredient. Afterwards each unit is infected with 10-20 larvae of the banded cucumber beetle (Diabrotica balteata).
After 7 days efficacy in % is determined. 100% means all the seedlings have grown up like in the untreated, uninfected control; 0% means none of the seedlings have grown.

The test system of data set [1] is Ctenocephalides felis. The data set is described as follows: Ctenocephalides felis oral test. It is filed as in vivo. As to conditions: 48 h, 100 ppm in cattle blood, after 2 days. Here is the method: Ctenocephalides felis—Oral Test Solvent: dimethyl sulfoxide
To produce a suitable preparation of active compound, 10 mg of active compound are dissolved in 0.5 ml solvent, and the concentrate is diluted with cattle blood to the desired concentration.
Approximately 20 adult unfed cat fleas (Ctenocephalides felis) are placed in flea chambers. The blood chamber, sealed with parafilm on the bottom, are filled with cattle blood supplied with compound solution and placed on the gauze covered top of the flea chamber, so that the fleas are able to suck the blood. The blood chamber is heated to 37° C. whereas the flea chamber is kept at room temperature.
After 2 days mortality in % is determined. 100% means all the fleas have been killed; 0% means none of the fleas have been killed.

The next data set concerns Boophilus microplus. The data set is described as follows: Boophilus microplus injection test. It is filed as in vivo. As to conditions: Rhipicephalus microplus, 168 h; 20 gg/animal, injection into abdomen, after 7 days; read-out: efficacy (infertile eggs). Here is the method:
Boophilus microplus—Injection Test Solvent: dimethyl sulfoxide To produce a suitable preparation of active compound, 10 mg of active compound are dissolved in 0.5 ml solvent, and the concentrate is diluted with solvent to the desired concentration. Five adult engorged female ticks (Boophilus microplus) are injected with 1 μl compound solution into the abdomen. The ticks are transferred into replica plates and incubated in a climate chamber. After 7 days egg deposition of fertile eggs is monitored. Eggs where fertility is not visible are stored in a climate chamber till hatching after about 42 days. An efficacy of 100% means all eggs are infertile; 0% means all eggs are fertile.

The subject of data set [2] is Aedes aegypti strain MONHEIM. As to the kind of experiment: Aedes aegypti test (AEDSAE surface treatment & contact assay). The following applies: surface concentration 20 mg/m^2, 30 minutes exposure, 24 hours after contact, read-out: efficacy (mortality). It is filed as in vivo. Here is the method:
Aedes aegyti Test (AEDSAE Surface Treatment & Contact Assay) Solvent: Aceton+2000 ppm rapeseed oil methyl ester (RME)
In order to produce a sufficient, active ingredient containing solution it is necessary to solve the test compound in the solvent-mix (acetone at 2 mg/ml/RME 2000 ppm). This solution is pipetted onto a glazed tile and after evaporation of the acetone, adult mosquitoes of the species Aedes aegypti strain MONHEIM are placed onto the dried surface. The exposure time is 30 minutes.
Mortality in percent (%) is determined 24 hours after contact to the treated surface. 100% mortality means that all tested insects are dead, whereas 0% means that no insect died.

The next data set deals with Nilaparvata lugens. The data set is described as follows: Nilaparvata lugens spray test. It is filed as in vivo. The following applies: 96 h, after 4 days. How it is done:
Nilaparvata lugens—Spray Test Solvent: 78.0 parts by weight of acetone • • 1.5 parts by weight of dimethylformamide Emulsifier: alkylarylpolyglycol ether
as §1
Rice plants (Oryza sativa) are sprayed with a preparation of the active ingredient of the desired concentration and the plants are infested with the brown planthopper (Nilaparvata lugens).
After 4 days mortality in % is determined. 100% means all planthoppers have been killed and 0% means none of the planthoppers have been killed.

The test system of data set [3] is Ctenocephalides felis. The data set is described as follows: Ctenocephalides felis in-vitro contact test, adult cat flea. It is filed as in vivo. As to conditions: 5 μg/cm^2, after 48 hours. How it is done:
(§2) 9 mg compound is solved in 1 ml acetone and diluted with acetone to the desired concentration. 250 μl of the test solution is filled in 25 ml glass test tubes and homogeneously distributed on the inner walls by rotation and tilting on a shaking device (2 h at 30 rpm). With a compound concentration of 900 ppm, an inner surface of 44.7 cm^2 and a homogeneous distribution, a dose of 5 μg/cm^2 is achieved.
After the solvent has evaporated, each test tube is filled with 5-10 adult cat fleas (Ctenocephalides felis), closed with a perforated lid and incubated in a lying position at room temperature and relative humidity. After 48 hours efficacy is determined. The fleas are patted on the ground of the tubes and are incubated on a heating plate at 45-50° C. for at most 5 minutes. Immotile or uncoordinated moving fleas, which are not able to escape the heat by climbing upwards, are marked as dead or moribund.
An efficacy of 100% means all fleas are dead or moribund; 0% means no fleas are dead or moribund.

The subject of another data set is Rhipicephalus sanguineus. As to the kind of experiment: Rhipicephalus sanguineus in-vitro contact test, adult brown dog ticks. The following applies: 5 gg/cm^2, after 48 hours. It is filed as in vivo. Here is the method:
as §2
After the solvent has evaporated, each test tube is filled with 5-10 adult brown dog ticks (Rhipicephalus sanguineus), closed with a perforated lid and incubated in a lying position at room temperature and relative humidity. After 48 hours efficacy is determined. The ticks are patted on the ground of the tubes and are incubated on a heating plate at 45-50° C. for at most 5 minutes. Immotile or uncoordinated moving ticks, which are not able to escape the heat by climbing upwards, are marked as dead or moribund.
An efficacy of 100% means all ticks are dead or moribund; 0% means no ticks are dead or moribund.

The subject of another data set is Spodoptera frugiperda. As to the kind of experiment: Spodoptera frugiperda spray test. As to conditions: 168 h, after 7 days. It is filed as in vivo. How it is done:
Suodontera frugiuerda—Spray Test Solvent: 78.0 parts by weight acetone • 1.5 parts by weight dimethylformamide Emulsifier: alkylarylpolyglycol ether
as §1
Maize (Zea mays) leaf sections are sprayed with a preparation of the active ingredient of the desired concentration. Once dry, the leaf sections are infested with fall armyworm larvae (Spodoptera frugiperda).
After 7 days mortality in % is determined. 100% means all caterpillars have been killed and 0% means none of the caterpillars have been killed.

The nature of data set [4]: log P by HPLC on reversed phase, neutral range. It is filed as physicochemical. The following applies: reversed phase HPLC column, LC-UV, 0.001 molar ammonium acetate solution in water and acetonitrile. How it is done: Measurement of log P values was performed according to EEC directive 79/831 Annex V.A8 by HPLC (High Performance Liquid Chromatography) on reversed phase columns with the following methods. Instrument(s): Agilent 1100 LC system, Agilent MSD system, HTS PAL; Waters IClass Acquity UPLC, SQD2 (MS), PDA (UV). […] Calibration was done with straight-chain alkan-2-ones (with 3 to 16 carbon atoms) with known log P values (measurement of log P values using retention times with linear interpolation between successive alkanones). Lambda-max-values were determined using UV-spectra from 200 nm to 400 nm and the peak values of the chromatographic signals.

From US20220002268A1, “NOVEL HETEROARYL-TRIAZOLE AND HETEROARYL-TETRAZOLE COMPOUNDS AS PESTICIDES” (Bayer Aktiengesellschaft, priority 2019, published 2022) come the findings set out here.

As a reminder, the mortality is the share of the test organisms that died. In the data set on Myzus persicae, `O=C(c1cc(Cl)nc(Cl)c1)N(Cc1ncnn1-c1ncccn1)CC1CC1` [Example I-002] came in with a mortality at 20 ppm of 100%. The compound further yielded a mortality at 500 g/ha with Phaedon cochleariae of 100%. Besides, in the data set on Diabrotica balteata, the pest or weed control at 160 µg/well was found to be 100%. For the same compound, in the data set on Ctenocephalides felis [1], the mortality at 100 ppm turned out to be 80%.
Regarding `O=C(c1cccc(C(F)(F)F)c1)N(Cc1ncnn1-c1ncccn1)CC1CC1` [Example I-003], the mortality at 20 ppm in the data set with Myzus persicae was determined as 100%. For the same compound, the pest or weed control at 0.02 mg in the data set on Boophilus microplus was determined as 100%. In addition, the mortality at 500 g/ha with Phaedon cochleariae was 100%. Besides, in the data set with Diabrotica balteata, the pest or weed control at 160 µg/well was found to be 100%.
As to `O=C(NCCc1ncnn1-c1ncccn1)c1cc(Cl)cc(C(F)(F)F)c1` [Example I-006], the mortality at 20 ppm in the data set on Myzus persicae came to 100%. Also, in the data set with Boophilus microplus, the pest or weed control at 0.02 mg is 100%. In addition, the mortality at 500 g/ha in the data set with Phaedon cochleariae was 100%. Besides, in data set [2], the mortality at 20 mg/m2 lay within 85 to 100%. Further, the pest or weed control at 160 µg/well in the data set on Diabrotica balteata turned out to be 100%. This compound returned a mortality at 100 ppm with Ctenocephalides felis [1] of 100%.
In the data set with Myzus persicae, `O=C(NC(CC1CC1)c1ncnn1-c1ncccn1)c1cc(Cl)cc(C(F)(F)F)c1` (stereo not drawn) [Example I-007] showed a mortality at 20 ppm of 100%.
Consider `O=C(NC(c1ncnn1-c1ncccn1)C1CC1)c1cc(Cl)cc(C(F)(F)F)c1` (stereo not drawn) [Example I-008], for which, in the data set with Boophilus microplus, the pest or weed control at 0.02 mg turned out to be 95%. In the data set on Phaedon cochleariae, the mortality at 500 g/ha worked out at 100%. This compound also came in with a mortality at 100 ppm in the data set on Ctenocephalides felis [1] of 100%.
The compound `O=C(c1cc(Cl)cc(Cl)c1)N(Cc1ncnn1-c1ncccn1)CC1CC1` [Example I-010] came in with a mortality at 20 ppm with Myzus persicae of 100%. For the same compound, the mortality at 500 g/ha in the data set with Phaedon cochleariae turned out to be 100%. The pest or weed control at 160 µg/well in the data set with Diabrotica balteata was 100%.
The compound `COCC(NC(=O)c1cc(Cl)cc(C(F)(F)F)c1)c1ncnn1-c1ncccn1` (stereo not drawn) [Example I-012, 3-Chloro-N-{2-methoxy-1-[1-(pyrimidin-2-yl)-1H-1,2,4-triazol-5-yl]ethyl}-5-(trifluoromethyl)-benzamide] gave a mortality at 20 ppm in the data set with Myzus persicae of 100%. For the same compound, the mortality at 500 g/ha in the data set with Nilaparvata lugens and in the data set on Phaedon cochleariae was 100% in each case. Moreover, in the data set on Ctenocephalides felis [3], the “efficacy (fleas dead or moribund)” value is recorded as 100%. For the same compound, the pest or weed control at 0.02 mg in the data set with Boophilus microplus was 100%. In the data set with Diabrotica balteata, the pest or weed control at 160 µg/well came out at 100%. This compound showed a mortality at 100 ppm in the data set on Ctenocephalides felis [1] of 100%. Further, in the data set with Rhipicephalus sanguineus, the “efficacy (ticks dead or moribund)” value is 80%.
Turning to `COCC(NC(=O)c1cc(Cl)cc(C(F)(F)F)c1)c1ncnn1-c1ccc(C#N)cn1` (stereo not drawn) [Example I-013], in the data set on Boophilus microplus, the pest or weed control at 0.02 mg is 100%. The compound further showed a mortality at 500 g/ha with Spodoptera frugiperda of 100%. Also, the mortality at 100 ppm in the data set with Ctenocephalides felis [1] was determined as 100%.
For `O=C(NC1(c2ncnn2-c2ncccn2)CC1)c1cc(C(F)(F)F)cc(C(F)(F)F)c1` [Example I-014], in the data set with Boophilus microplus, the pest or weed control at 0.02 mg worked out at 100%.
For `COC[C@H](NC(=O)c1cc(Cl)cc(Cl)c1)c1ncnn1-c1ccc(C#N)cn1` [Example I-017], the “efficacy (fleas dead or moribund)” value in the data set on Ctenocephalides felis [3] is reported as 90%. This compound gave a mortality at 500 g/ha with Spodoptera frugiperda of 100%.
As to `COC[C@H](NC(=O)c1cc(Cl)cc(OC(F)(F)F)c1)c1ncnn1-c1ccc(C#N)cn1` [Example I-018], the mortality at 500 g/ha in the data set on Spodoptera frugiperda was determined as 100%.
As a reminder, the chromatographic logP is a lipophilicity value derived from retention on a column. Compound `NCCc1ncnn1-c1ncccn1` [a-002] registered a chromatographic logP in [4] of 0.01.
In [4], `N#Cc1ccc(-n2ncnc2CCN)nc1` [a-003] gave a chromatographic logP of 0.87.
On the same count and under the same terms, with `COCC(NC(=O)c1cc(Cl)cc(C(F)(F)F)c1)C(N)=O` (stereo not drawn) [n-001, N-(1-amino-3-methoxy-1-oxopropan-2-yl)-3-chloro-5-(trifluoromethyl)benzamide] the figure was 1.94.
